From patent US12351834B2, “Compositions and methods for the treatment of ornithine transcarbamylase deficiency” (Arcturus Therapeutics, Inc., priority 2020, dated 2025)
Where two headings read alike, the source gives them in different places.

What was measured:
[1] = In vivo tissue lipid clearance in Balb/c mice; set-up: species or system mouse; conditions: for Tmax / half-life / concentration at 28 days: Balb/c, mouse; for ranking of lipid level by tissue / time post-dose by which lipid no longer detected in plasma: single IV bolus 1 mg/kg of the lipid formulation; for concentration at 28 days: 28 days post-dose
Method: Additional studies were conducted to evaluate the in vivo tissue clearance profile of Lipid #7 and Lipid #3 in Balb/c mice. The clearance profiles in mouse tissue and plasma can be found in FIG. 25 (for Lipid #7) and FIG. 26 (for Lipid #3). All animals received a single intravenous bolus treatment of 1 mg/kg of the Lipid #7 formulation at a dosing volume of 10 mL/kg. Plasma, liver, kidney, and spleen were collected from mice (n=3 mice per timepoint) at 0, 2, 15, 30 minutes; 1, 2, 4, 6, 8, 12, 24, 48 hours; and 5, 7, 21, 28 days post-dose. All samples were analyzed for Lipid #7 concentrations.
All animals received a single intravenous bolus treatment of 1 mg/kg of the Lipid #3 formulation at a dosing volume of 10 mL/kg. Plasma was collected from mice (n=3 per timepoint) at 0.25, 1, 2, 4, 6, 12, 24, 120, and 168 hours post-dose. Liver, kidney, and spleen were collected from mice (n=3 per timepoint) at 0.033, 0.25, 1, 2, 4, 6, 12, 24, 120, and 168 hours; 1, 2, 3, 4-weeks post-dose. Heart, brain and lungs were collected from mice (n=3 per timepoint) at 0.25 hours; 1, 2-weeks post-dose. Only samples from 0.25 hrs to 1-week post-dose were analyzed for Lipid #3 tissue concentrations.

Spf/ash mice [2] = assay: Western Blot of mitochondrial and cytosolic liver fractions of Spf/ash mice; assay type: in vivo, mouse
Method: Spf/ash mice received an IV injection with either PBS or lipid-formulated (as described in Example 1) OTC-mRNAs at 1 mg/kg and 3 mg/kg. WT mice were used as internal controls. Livers were harvested from the mice and sample fractionation was performed on the liver samples, separating the cytosolic and mitochondrial fractions. OTC levels were measured by Western Blot (WB) using human specific (hOTC) and crossreactive (crOTC) antibodies (FIG. 14). […] (CoxIV) was used as a mitochondrial control. OTC protein expression levels were measured by near-infrared fluorescent imaging systems and normalized to total protein.
Spf/ash mice received an IV injection with either PBS or lipid-formulated OTC-mRNAs at 3 mg/kg. WT mice were used as internal controls. Sample fractionation was performed on liver samples harvested from the mice, separating the cytosolic and mitochondrial fractions. OTC levels were measured by Western Blot using a human specific antibody. OTC protein expression levels were measured by near-infrared fluorescent imaging systems and both fractions, normalized to total protein, were plotted (FIG. 15). […] The 2260 compound includes a modified mitochondrial signaling peptide sequence provided herein.

Spf/ash mice [3] = assay: Urinary orotate levels in Spf/ash mice; assay type: in vivo, mouse; conditions: 1 mg/kg and 3 mg/kg IV
Method: Spf/ash mice received an IV injection with either PBS or lipid-formulated OTC-mRNA construct 1799.7 (5MeOU chemistry) at three different doses: 0.3 mg/kg, 1 mg/kg and 3 mg/kg. Urinary orotate levels were determined in untreated wild-type (WT) and both untreated and treated Spf/ash mice. A urinary orotate time course was performed in Spf/ash and WT mice, and urinary orotate levels were measured at each timepoint. The results can be seen in FIG. 12. Urinary orotate was normalized to creatinine, which is represented in the graph on the y-axis throughout the time course and served as a proof-of-concept of functional restoration of OTC activity post-injection.
Spf/ash mice received an IV injection with either PBS or lipid-formulated (as described in Example 1) OTC-mRNA at 1 mg/kg and 3 mg/kg. WT mice were included as an internal control. Urinary orotate levels were measured at 0, 1, 3, 7 and 14 days, and levels were normalized to creatinine (FIG. 16).

[4] = kidney, 1 mg/kg IV, read-out: half-life, kidney (converted)
[5] = liver, 1 mg/kg IV, read-out: half-life, liver (converted)
[6] = plasma, 1 mg/kg IV, read-out: half-life, plasma (converted)

Row | Molecule | tissue clearance assessment ([1]; 1 mg/kg IV) | detection in brain tissue ([1]; 1 mg/kg IV, either time point post-dose) | time post-dose through which concentrations persisted, all other tissues ([1]; 1 mg/kg IV, close to LLOQ) | time post-dose through which concentrations persisted, liver ([1]; 1 mg/kg IV, close to LLOQ) | Tmax ([1]; kidney, 1 mg/kg IV, read-out: Tmax, kidney) | half-life [1, 4] | Tmax ([1]; liver, 1 mg/kg IV, read-out: Tmax, liver) | half-life [1, 5] | half-life [1, 6] | Tmax ([1]; spleen, 1 mg/kg IV, read-out: Tmax, spleen) | half-life ([1]; spleen, 1 mg/kg IV, read-out: half-life, spleen (converted)) | ranking of lipid level by tissue [1] | time post-dose by which lipid no longer detected in plasma [1] | concentration at 28 days ([1]; kidney, 1 mg/kg IV, read-out: lipid concentration in the kidney) | concentration at 28 days ([1]; liver, 1 mg/kg IV, read-out: lipid concentration in the liver) | concentration at 28 days ([1]; spleen, 1 mg/kg IV, read-out: lipid concentration in the spleen) | targeting of expressed OTC to the mitochondria (Spf/ash mice [2]; 1 mg/kg and 3 mg/kg IV, liver fractions) | human OTC protein level in mitochondrial fraction (Spf/ash mice [2]; 3 mg/kg IV, liver, normalized to total protein) | dose dependence of urinary orotate reduction (Spf/ash mice [3]) | duration of reduced urinary orotate levels (Spf/ash mice [3]; measured at 0, 1, 3, 7 and 14 days)
1 | CCCCCC/C=C\COC(=O)CCCCCN(CCCCCC(=O)OC(CCCCCCC)CCCCCCC)C(=O)SCCN(C)C [Lipid #3] | rapid tissue clearance | not detected in brain tissue | 120 h | 168 h | 0.033 to 1 h | 19 h | 0.033 to 1 h | 22 h | 0.45 h | 1 to 2 h | 24 h | liver>plasma>spleen>kidney>lung>heart>brain | ≤ 4 h | – | – | – | – | – | – | –
2 | CCCCCCCC(CCCCCCC)OC(=O)CCCN(CCCC(=O)OC(CCCCCCC)CCCCCCC)C(=O)SCCCN(C)C [Lipid #7] | – | – | – | – | – | 234 h | – | 84 h | 57 h | – | – | liver>spleen>plasma>kidney | ≤ 336 h | 2.34 ng/mL | 17.2 ng/mL | 18.4 ng/mL | – | – | – | –
3 | Construct 2260: mRNA construct, SEQ ID NO: 251, encodes modified human OTC protein of SEQ ID NO: 4 (nucleic acid) sense: AGGAUUAUUACAUCAAAACAAAAAGCCGCCACCAUGCUGGUAUUCAACCUGCGCAUCCUGCUGAACAACGCCGCCUUCCGCAACGGCCACAACUUCAUGGUGCGCAACUUCCGCUGCGGCCAGCCCCUGCAGAACCGGGUGCAGCUGAAGGGCCGCGACCUGCUGACCCUGAAGAACUUCACCGGCGAGGAGAUCCGGUACAUGCUGUGGCUGAGCGCCGACCUGAAGUUCCGCAUCAAGCAGAAGGGCGAGUACCUGCCCCUGCUGCAGGGCAAGAGCCUGGGCAUGAUCUUCGAGAAGCGCAGCACCCGCACCCGCCUGAGCACCGAGACAGGCUUCGCCCUGCUGGGCGGCCACCCCUGCUUCCUGACCACCCAGGACAUCCACCUGGGCGUGAACGAGAGCCUGACCGACACCGCCCGCGUGCUGAGCAGCAUGGCCGACGCCGUGCUGGCCCGCGUGUACAAGCAGAGCGACCUGGACACCCUGGCCAAGGAGGCCAGCAUCCCCAUCAUCAACGGCCUGAGCGACCUGUACCACCCCAUCCAGAUCCUGGCCGACUACCUGACCCUGCAGGAGCACUACAGCAGCCUGAAGGGCCUGACCCUGAGCUGGAUCGGCGACGGCAACAACAUCCUGCACAGCAUCAUGAUGAGCGCCGCCAAGUUCGGCAUGCACCUGCAGGCCGCCACCCCCAAGGGCUACGAGCCCGACGCCAGCGUGACCAAGCUGGCCGAGCAGUACGCCAAGGAGAACGGCACCAAGCUGCUGCUGACCAACGACCCCCUGGAGGCCGCCCACGGCGGCAACGUGCUGAUCACCGACACCUGGAUCAGCAUGGGCCAGGAGGAGGAGAAGAAGAAGCGCCUGCAGGCCUUCCAGGGCUACCAGGUGACCAUGAAGACCGCCAAGGUGGCCGCCAGCGACUGGACCUUCCUGCACUGCCUGCCCCGCAAGCCCGAGGAGGUGGACGACGAGGUGUUCUACAGCCCCCGCAGCCUGGUGUUCCCCGAGGCCGAGAACCGCAAGUGGACCAUCAUGGCCGUGAUGGUGAGCCUGCUGACCGACUACAGCCCCCAGCUGCAGAAGCCCAAGUUCUGAGGUCUCUAGUAAUGAGCUGGAGCCUCGGUAGCCGUUCCUCCUGCCCGCUGGGCCUCCCAACGGGCCCUCCUCCCCUCCUUGCACCGGCCCUUCCUGGUCUUUGAAUAAAGUCUGAGUGGGCAGCAUCUAG | – | – | – | – | – | – | – | – | – | – | – | – | – | – | – | – | can efficiently target the mitochondria | delivers more human OTC than 2016 in the mitochondria | dose-dependent manner | up to 14 days
